Assay results published in US20250332112A1, “IONIZABLE CATIONIC LIPIDS FOR LIPID NANOPARTICLES” (GENEVANT SCIENCES GMBH, priority 2022, published 2025).

Legend:
[1] = tested on: EGFP expression in the liver; assay: EGFP expression in liver after intravenous EGFP mRNA LNP (ELISA); conditions: 0.5 mg/kg IV, 24 h post-IV administration, BALB/c mice (n = 4)
Procedure: LNP formulations encapsulating enhanced green fluorescent protein mRNA were injected intravenously at 0.5 mg/kg to female BALB/c mice (6-8 weeks old). On day of injection, the LNP stocks were filtered and diluted to the required dosing concentration with phosphate buffered saline. At 24 hours post-administration, animals were anaesthetized with a lethal dosage of ketamine/xylazine. Liver samples (left lateral lobe) were collected, weighed, and flash frozen in liquid nitrogen. Liver samples were stored in FastPrep® tubes at −80° C. until analyzed for EGFP expression.
Liver homogenates were prepared in cell extraction buffer, diluted, and analyzed for EGFP protein levels using ELISA, according to manufacturer's instructions (Abcam, GFP ELISA Kit).

[2] = Parent ionizable lipid remaining in liver at 24 h after EGFP mRNA LNP (LC-MS); format: in vivo; conditions: 24 h after IV 0.5 mg/kg EGFP mRNA LNP, female BALB/c mice (n = 4)
[3] = tested on: EGFP expression in the liver; assay: Dose response of EGFP mRNA LNP, EGFP expression in liver; format: in vivo; conditions: 24 h, female BALB/c mice (n = 4)
Procedure: At 24 h post-dose, the novel lipid formulations reported dose-dependent increases in EGFP expression in the liver (Table 32).

[4] = Particle characteristics of LNPs containing luciferase mRNA and novel ionizable lipids; format: physicochemical
Summary of the method: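 LNPs made from PEG-lipid, ionizable lipid, cholesterol and phospholipid in ethanol, T-mixed with luciferase mRNA in 100 mM acetate pH 5. Products were dialysed, concentrated, and dialysed into 5 mM Tris, 10% sucrose, pH 8, then 0.2 μm filtered. mRNA was measured by RiboGreen, and size and polydispersity by dynamic light scattering on a Zetasizer.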

[5] = tested on: human OTC expression in the liver; assay: Dose response of human OTC mRNA LNP, OTC expression in liver (ELISA); format: in vivo; conditions: 24 h, male C57BL/6 mice (n = 4)
Procedure: LNP formulations encapsulating ornithine transcarbamylase mRNA were injected intravenously at the specified dose levels to male C57BL/6 mice (6-8 weeks old).
Liver homogenates were prepared with PBS, Halt protease inhibitor cocktail and FastPrep homogenization, standardized to 2 mg/mL protein with a BCA Protein Assay, and then analyzed by ELISA. Briefly, samples were diluted with PBS and plated on Nunc Maxisorp plates. A standard curve using human […] protein was prepared from the naïve animal controls (vehicle). After 2 h incubation the plates were washed, and the primary antibody was added. After 1 h incubation, the secondary antibody was added and incubated for another hour. After washing, TMB Substrate was added for color development and the reaction was stopped with 2 N sulfuric acid. The plate was read at 450/570 OD.
At 24 h post-dose, the novel lipid formulations reported dose-dependent increases in human OTC expression in the liver (Table 15).

[6] = Table 1, luciferase mRNA LNP 1.6:54.6:32.8:10.9
[7] = Table 2, luciferase mRNA LNP 1.6:54.6:32.8:10.9
[8] = Table 3, luciferase mRNA LNP 1.6:54.6:32.8:10.9
[9] = Table 4, luciferase mRNA LNP 1.6:54.6:32.8:10.9
[10] = Table 5, luciferase mRNA LNP 1.6:54.6:32.8:10.9
[11] = Table 6, luciferase mRNA LNP 1.6:54.6:32.8:10.9
[12] = Table 7, luciferase mRNA LNP 1.6:54.6:32.8:10.9

SMILES: CCCCC/C=C\CCCC(CCC/C=C\CCCCC)C(CCC/C=C\CCCCC)OC(=O)CCCCN(C)C (centres unmarked) [Compound 13-B43, reference compound]
- EGFP ([1]; Table 24): 3.75E+07 pg/g liver
- EGFP ([1]; Table 25): 9.74E+04 pg/g liver
- EGFP ([1]; Table 26): 5.23E+07 pg/g liver
- EGFP ([1]; Table 27): 6.46E+07 pg/g liver
- Parent ionizable lipid remaining in liver, Average ([2]; Table 28): 38.48 nmol/g liver
- Parent ionizable lipid remaining in liver, Average ([2]; Table 29): 29.77 nmol/g liver
- Parent ionizable lipid remaining in liver, Average ([2]; Table 30): 50.86 nmol/g liver
- Parent ionizable lipid remaining in liver, Average ([2]; Table 31): 23.9 nmol/g liver
- EGFP expression ([3]; 0.3 mg/kg IV): 3.65e+07 pg EGFP/g liver
- EGFP expression ([3]; 1 mg/kg IV): 1.88e+08 pg EGFP/g liver
- EGFP expression ([3]; 3 mg/kg IV): 4.4e+08 pg EGFP/g liver
- Final Product % EE [4, 6]: 94%
- Final Product PDI [4, 6]: 0.13
- Final Product Z-avg ([4]; Table 1, luciferase mRNA LNP 1.6:54.6:32.8:10.9 PEG2000-C-DMA:Ionizable lipid:Cholesterol:DSPC): 70 nm
- Final Product % EE [4, 7]: 99%
- Final Product PDI [4, 7]: (0.03)
- Final Product Z-avg [4, 7]: 72 nm
- Final Product % EE [4, 8]: 99%
- Final Product PDI [4, 8]: 0.06
- Final Product Z-avg [4, 8]: 72 nm
- Final Product % EE [4, 9]: 98%
- Final Product PDI [4, 9]: 0.07
- Final Product Z-avg [4, 9]: 72 nm
- Final Product % EE [4, 10]: 98%
- Final Product PDI [4, 10]: 0.06
- Final Product Z-avg [4, 10]: 69 nm
- Final Product % EE [4, 11]: 99%
- Final Product PDI [4, 11]: 0.07
- Final Product Z-avg [4, 11]: 77 nm
- Final Product % EE [4, 12]: 98%
- Final Product PDI [4, 12]: 0.06
- Final Product Z-avg [4, 12]: 74 nm
- Human OTC expression ([5]; 0.3 mg/kg IV): 908 ng hOTC/mg protein in liver
- Human OTC expression ([5]; 1 mg/kg IV): 6651 ng hOTC/mg protein in liver
- Human OTC expression ([5]; 3 mg/kg IV): 12413 ng hOTC/mg protein in liver
